Test results taken from article PMC3950723, “A fluorescence-based assay suitable for quantitative analysis of deadenylase enzyme activity” (Nucleic Acids Research, 2013).
{Flc} = fluorescein group

Experiments:
Type in all cases: biochemical
Caf1/CNOT7 = molecular target: T1, Caf1/CNOT7 (Homo sapiens, UniProt Q9UIV1); assay: fluorescence-based deadenylase assay; details: for inhibition of Caf1/CNOT7 activity: 300 µM compound; for IC50: 15 min pre-incubation at room temperature, 60 min at 30°C, ± standard error of the mean, at least three independent experiments
T1 construct: hexahistidine (N); made in house; host or cells: Escherichia coli BL21 (DE3), plasmid pQE80L
Experimental: (§1) Standard reaction conditions for deadenylase assays were: 20 mM Tris–HCl pH 7.9, 50 mM NaCl, 2 mM MgCl2, 10% glycerol, 1 mM β-mercaptoethanol and 1.0 µM 5′-Flc-labelled RNA substrate in nuclease-free water.
(§2) For fluorescence-based detection of nuclease activity, deadenylase reactions (10–20 µl) were incubated at 30°C for 60 min and stopped by the addition of an equal volume of probe mix containing 1% SDS, and a 5-fold molar excess of 3′-labelled DNA probe. Fluorescence intensity was measured at 25°C (sensitivity setting 70–90) using a BioTek Synergy HT plate reader with 96 or 384 U-shaped black multi-well plates. Filter sets used were: 485 ± 20 nm (excitation) and 528 ± 20 nm (emission). Data analysis and curve-fitting were carried out using Microsoft Excel 2007 and Graphpad Prism 5.0.
Compounds (10 mM in dimethyl sulphoxide, DMSO) were stored in a dry, inert environment at −20°C and dispensed in 96-well plates using an automated facility (TTP Labtech Technology). Compounds were diluted to 0.5 mM using 20% DMSO/water. Aliquots (4 µl; 25% DMSO/water) were transferred to black U-well 384-well plates (Greiner Bio-One) and subsequent automated screening was carried out using a Biomek 3000 liquid handler (Beckman Coulter). After addition of enzyme (8 µl containing 1.0 µM Caf1/CNOT7, 50 mM Tris–HCl pH 7.9, 125 mM NaCl, 5 mM MgCl2, 25% glycerol, 2.5 mM β-mercaptoethanol), plates were left at room temperature for 15 min before the addition of RNA substrate (8 µl). The composition of the final reaction mixture was: 0.4 µM Caf1/CNOT7, 20 mM Tris–HCl pH 7.9, 50 mM NaCl, 2 mM MgCl2, 10% glycerol, 1 mM β-mercaptoethanol, 5% DMSO, 100 µM library compound. After incubation at 30°C for 60 min, 20 µl probe mix (5 µM DNA probe, 1% SDS, 20 mM Tris–HCl pH 8.0, 0.5 mM EDTA) was added. Fluorescence was measured using a BioTek Synergy HT plate reader as described above.

PARN = molecular target: T2, PARN (Homo sapiens, UniProt O95453); assay: fluorescence-based deadenylase assay, selectivity; details: 300 µM compound
T2 construct: made in house
T2 sequence (O95453 1-639): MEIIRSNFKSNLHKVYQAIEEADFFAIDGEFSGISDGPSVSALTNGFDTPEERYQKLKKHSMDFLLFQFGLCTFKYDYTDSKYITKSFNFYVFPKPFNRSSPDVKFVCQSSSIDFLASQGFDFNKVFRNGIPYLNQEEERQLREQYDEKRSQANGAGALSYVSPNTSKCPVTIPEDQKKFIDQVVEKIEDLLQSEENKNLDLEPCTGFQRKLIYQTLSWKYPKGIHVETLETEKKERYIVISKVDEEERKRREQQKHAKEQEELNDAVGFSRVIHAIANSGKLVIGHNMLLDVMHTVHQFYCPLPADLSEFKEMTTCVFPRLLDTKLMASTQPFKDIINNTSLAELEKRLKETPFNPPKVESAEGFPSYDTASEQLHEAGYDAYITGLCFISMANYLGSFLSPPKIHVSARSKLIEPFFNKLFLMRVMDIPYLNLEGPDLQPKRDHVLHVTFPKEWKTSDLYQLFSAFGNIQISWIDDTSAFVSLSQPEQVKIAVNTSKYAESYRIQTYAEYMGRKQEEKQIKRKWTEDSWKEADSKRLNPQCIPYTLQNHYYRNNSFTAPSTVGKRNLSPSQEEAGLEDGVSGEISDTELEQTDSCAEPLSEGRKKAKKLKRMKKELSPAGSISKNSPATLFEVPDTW
Experimental: as §1, §2

Ccr4/CNOT6L = molecular target: T3, Ccr4/CNOT6L (Homo sapiens, UniProt Q96LI5); assay: fluorescence-based deadenylase assay, selectivity; details: 300 µM compound
T3 construct: lacking the amino terminal leucine-rich repeat domain (amino acids 1–155); made in house; host or cells: E. coli, plasmid pQE80L
Experimental: as §1, §2

[1] = test system: HeLa S-100 cytoplasmic extract; assay: fluorescence-based detection of 3′ exonuclease activity in complex mixtures; details: 300 µM compound, 0.05 mg/ml S-100 fraction
Experimental: as §1, §2
HeLa cytoplasmic extract (S-100 fraction) was purchased from Boston Biochem (cat no F-372, 5 mg/ml).

T1 sequence (Q9UIV1 whole entry): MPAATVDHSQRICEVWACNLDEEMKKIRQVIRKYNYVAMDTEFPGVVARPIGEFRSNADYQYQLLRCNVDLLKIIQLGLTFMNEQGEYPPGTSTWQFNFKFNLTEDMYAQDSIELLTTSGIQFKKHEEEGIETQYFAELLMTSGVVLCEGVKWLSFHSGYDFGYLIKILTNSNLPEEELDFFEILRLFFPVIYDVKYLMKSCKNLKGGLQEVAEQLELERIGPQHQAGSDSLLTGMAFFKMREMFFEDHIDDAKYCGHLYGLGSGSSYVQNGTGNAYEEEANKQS
T3 sequence (Q96LI5 156-555): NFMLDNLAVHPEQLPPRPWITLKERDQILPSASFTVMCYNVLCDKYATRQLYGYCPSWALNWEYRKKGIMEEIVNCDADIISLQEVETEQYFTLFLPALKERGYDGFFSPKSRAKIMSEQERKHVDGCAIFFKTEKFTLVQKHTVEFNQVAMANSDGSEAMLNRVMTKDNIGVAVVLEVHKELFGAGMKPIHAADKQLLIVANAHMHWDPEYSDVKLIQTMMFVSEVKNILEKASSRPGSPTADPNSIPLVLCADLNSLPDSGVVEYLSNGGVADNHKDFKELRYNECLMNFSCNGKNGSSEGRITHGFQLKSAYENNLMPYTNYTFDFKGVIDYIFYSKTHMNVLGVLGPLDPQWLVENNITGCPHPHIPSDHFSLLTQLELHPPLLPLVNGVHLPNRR

| Compound | inhibition of Caf1/CNOT7 activity (Caf1/CNOT7) | IC50 (Caf1/CNOT7) | inhibition of PARN activity (PARN) | inhibition of Ccr4/CNOT6L activity (Ccr4/CNOT6L) | Km (Caf1/CNOT7; 0.4 µM Caf1/CNOT7, non-linear regression of Michaelis–Menten equation) | inhibition of activity of the S-100 fraction [1] |
| --- | --- | --- | --- | --- | --- | --- |
| COc1ccccc1NC(=O)c1ccc(NC(=O)CNC(=O)C(=O)NCc2cccs2)cc1 [NCC-00039069] | only inhibited Caf1/CNOT7 | 129 ± 18.8 µM | did not inhibit | did not inhibit |  |  |
| Cc1ccc(N(CCC#N)C(=O)CSc2nc3cc(S(N)(=O)=O)ccc3n2C)cc1 [NCC-00019223] |  | 97.5 ± 36.1 µM |  |  |  |  |
| Cc1ccccc1C(=O)Nc1nc2ccc(S(=O)(=O)NCC(C)C)cc2s1 [NCC-00001590] | only inhibited Caf1/CNOT7 | 98.7 ± 10.9 µM | did not inhibit | did not inhibit |  |  |
| 5′-CCU UUC CAA AAA AAA A-3′ (CCUUUCCAAAAAAAAA; RNA, 5' {Flc}, backbone not given here; Deadenylase RNA substrate) [oligonucleotide substrate, 16-mer RNA substrate oligonucleotide containing a 5′ fluorescein (Flc) group, reference compound] |  |  |  |  | 10.6 ± 2.9 µM |  |
| CC(Cc1ccco1)NC(=O)CSc1nnc(C(=O)Nc2ccc(Cl)cc2)s1 (stereo not drawn) [NCC-00007277] |  | 137 ± 20.3 µM |  |  |  | strongest effect |
| Cc1ccc(S(=O)(=O)NCc2nnc(NC(=O)c3ccc(NC(=O)C(F)(F)F)cc3)s2)cc1 [NCC-00010651] |  | 233 ± 23.5 µM | no complete inhibition | no complete inhibition |  |  |
